The target in this test is T1, recombinant human PKM2 (Homo sapiens, UniProt P14618).
T1 construct: His (N); purchased R&D Systems
Put plainly: Human PKM2 activation assay (Kinase-Glo Plus luminescent detection of generated ATP). Type of test: biochemical. Conditions: for Emax: percentage activation normalised to DMSO vehicle (LOW) and 5 μM TEPP-46 (HIGH), read-out: hPKM2 Emax; for EC50: recombinant human PKM2 activation, 4-parameter logistic fit, read-out: hPKM2 EC50. The protocol:
Compound activation of recombinant human PKM2 pyruvate kinase activity was determined by biochemical assay. N-terminal His-tagged hPKM2 was sourced from R&D Systems and its substrates phosphoenolpyruvate (PEP) and ADP from Sigma-Aldrich and 2Bscientific Ltd, respectively. The Kinase-Glo® Plus luminescence assay was from Promega. All other reagents were from Sigma-Aldrich. Test Compounds were prepared as 10 mM DMSO stocks and dilution series prepared in DMSO for direct dilution into Assay Buffer comprising 50 mM imidazole, 50 mM KCl, 7 mM MgCl2, 0.01% Tween20, 0.05% BSA (pH 7.2).
Human PKM2 was diluted into Assay Buffer comprising 50 mM imidazole, 50 mM KCl, 7 mM MgCl2, 0.01% Tween20, 0.05% BSA (pH 7.2) to a final concentration of […]. Enzyme-Assay Buffer mix was dispensed into a 384-well shallow-well white-walled plate (PerkinElmer) and Test Compounds added by acoustic dispense (Echo®, Labcyte Inc.).
After 60 minutes' incubation on an orbital shaker (300 rpm, 26° C.), enzyme activity was quantified by the luminescent detection of generated ATP. Kinase-Glo® Plus reagent was added to each well and the plates incubated for a further 15 minutes on an orbital shaker in the dark (300 rpm, 26° C.) before luminescence measurement on a plate reader (PHERAstar® FSX, BMG Labtech).
Percentage activation was calculated by normalising […] signals to plate LOW (DMSO vehicle) and HIGH (5 μM TEPP-46) controls. EC50 and Emax values were determined from 4-parameter logistic fits of compound concentration-response curves.

T1 sequence (P14618 2-531 limits assumed): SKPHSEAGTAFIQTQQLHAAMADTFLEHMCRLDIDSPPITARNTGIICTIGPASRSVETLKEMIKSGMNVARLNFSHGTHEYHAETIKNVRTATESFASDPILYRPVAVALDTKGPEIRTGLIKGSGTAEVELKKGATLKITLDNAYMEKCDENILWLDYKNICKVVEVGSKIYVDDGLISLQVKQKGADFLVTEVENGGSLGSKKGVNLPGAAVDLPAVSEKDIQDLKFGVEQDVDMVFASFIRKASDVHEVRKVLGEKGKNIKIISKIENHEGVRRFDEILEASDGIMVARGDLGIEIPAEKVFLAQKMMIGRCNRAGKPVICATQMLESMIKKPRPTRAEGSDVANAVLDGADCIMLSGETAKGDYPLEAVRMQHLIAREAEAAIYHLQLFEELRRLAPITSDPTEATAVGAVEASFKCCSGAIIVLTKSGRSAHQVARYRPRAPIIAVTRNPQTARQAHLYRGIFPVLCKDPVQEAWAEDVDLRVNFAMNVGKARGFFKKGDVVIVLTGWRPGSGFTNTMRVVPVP

The term Emax denotes the size of the effect at its maximum, as opposed to the concentration needed. As usually defined, the EC50 is the concentration giving half of the maximal effect. Take `Cc1ccc(S(=O)(=O)c2ccc3c(=O)n(Cc4cccc(N)c4)ncc3c2)s1` [Example 146, 2-(3-aminobenzyl)-6-((5-methylthiophen-2-yl)sulfonyl)phthalazin-1(2H)-one]: the Emax came to 115% and the EC50 is 75.3 nM.

`COc1ccc(Cn2ncc3cc(S(=O)(=O)c4ccc(F)cc4)ccc3c2=O)cn1` [Example 147, 6-((4-fluorophenyl)sulfonyl)-2-((6-methoxypyridin-3-yl)methyl)phthalazin-1(2H)-one]: the Emax came to 98.8% and the concentration giving a half-maximal response (EC50) is 94.8 nM.

In the case of `COc1ccc(Cn2ncc3cc(S(=O)(=O)c4cc(C)ns4)ccc3c2=O)cn1` [Example 148, 2-((6-methoxypyridin-3-yl)methyl)-6-(3-methylisothiazol-5-ylsulfonyl)phthalazin-1(2H)-one], the Emax was 71.3% and the EC50 came to 58.4 nM.

For `COc1ccc(S(=O)(=O)c2ccc3c(=O)n(Cc4cccc(N)c4)ncc3c2)cn1` [Example 149, 2-(3-aminobenzyl)-6-((6-methoxypyridin-3-yl)sulfonyl)phthalazin-1(2H)-one], the Emax turned out to be 100% and the EC50 was determined as 54.6 nM.

`Nc1cccc(Cn2ncc3cc(S(=O)(=O)c4ccc5c(c4)OCO5)ccc3c2=O)c1` [Example 152, 2-(3-aminobenzyl)-6-(benzo[d][1,3]dioxol-5-ylsulfonyl)phthalazin-1(2H)-one]: the Emax came out at 95.2% and the concentration giving a half-maximal response (EC50) stood at 19 nM.

For the compound `COc1ccc(Cn2ncc3cc(S(=O)(=O)c4ccc(OC(F)F)cc4)ccc3c2=O)cn1` [Example 153, 6-(4-(difluoromethoxy)phenylsulfonyl)-2-((6-methoxypyridin-3-yl)methyl)phthalazin-1(2H)-one], the maximal effect (Emax) turned out to be 77.2% and the EC50 was 15.7 nM.

As for `COc1ccc(Cn2ncc3cc(S(=O)(=O)c4cccc(Cl)c4)ccc3c2=O)cn1` [Example 154, 6-((3-chlorophenyl)sulfonyl)-2-((6-methoxypyridin-3-yl)methyl)phthalazin-1(2H)-one], the Emax came out at 93.7% and the 50% effective concentration (EC50) was 141 nM.

For the compound `COc1ccc(Cn2ncc3cc(S(=O)(=O)c4ccc(Cl)cc4)ccc3c2=O)cn1` [Example 155, 6-((4-chlorophenyl)sulfonyl)-2-((6-methoxypyridin-3-yl)methyl)phthalazin-1(2H)-one], the maximal response (Emax) turned out to be 71.6% and the EC50 worked out at 184 nM.

Turning to `COc1ccc(Cn2ncc3cc(S(=O)(=O)c4ccc5c(c4)OC(F)(F)O5)ccc3c2=O)cn1` [Example 156], the maximum response (Emax) amounted to 88.7% and the EC50 came out at 91 nM.

Consider `COc1ccc(Cn2ncc3cc(S(=O)(=O)c4cccc(F)c4)ccc3c2=O)cn1` [Example 157, 6-((3-fluorophenyl)sulfonyl)-2-((6-methoxypyridin-3-yl)methyl)phthalazin-1(2H)-one], for which the Emax worked out at 87.5% and the half-maximal effective concentration (EC50) was 123 nM.

As to `COc1ccc(Cn2ncc3cc(S(=O)(=O)c4ccn(C)n4)ccc3c2=O)cn1` [Example 158, 2-((6-methoxypyridin-3-yl)methyl)-6-((1-methyl-1H-pyrazol-3-yl)sulfonyl)phthalazin-1(2H)-one], the Emax was found to be 85.4% and the EC50 was determined as 186 nM.

With `COc1ccc(Cn2ncc3cc(S(=O)(=O)c4cc(C)ccn4)ccc3c2=O)cn1` [Example 159, 2-((6-methoxypyridin-3-yl)methyl)-6-(4-methylpyridin-2-ylsulfonyl)phthalazin-1(2H)-one], the maximal effect (Emax) is 72.4% and the EC50 was 501 nM.

With `COc1ccc(Cn2ncc3cc(S(=O)(=O)c4cccc(OC)n4)ccc3c2=O)cn1` [Example 160, 6-(6-methoxypyridin-3-yl)methyl)phthalazin-1(2H)-onemethoxypyridin-2-ylsulfonyl)-2-((6-], the maximum response (Emax) was found to be 83.3% and the EC50 amounted to 237 nM.

For the compound `COc1ccc(Cn2ncc3cc(S(=O)(=O)c4cccc(C(N)=O)c4)ccc3c2=O)cn1` [Example 161, 3-(2-((6-methoxypyridin-3-yl)methyl)-1-oxo-1,2-dihydrophthalazin-6-ylsulfonyl)benzamide], the Emax turned out to be 56.8% and the 50% effective concentration (EC50) was 211 nM.

Turning to `COc1ccc(Cn2ncc3cc(S(=O)(=O)c4ccccc4F)ccc3c2=O)cn1` [Example 162, 6-(2-fluorophenylsulfonyl)-2-((6-methoxypyridin-3-yl)methyl)phthalazin-1(2H)-one], the Emax is 99.5% and the 50% effective concentration (EC50) was 83.4 nM.

For `COc1ccc(Cn2ncc3cc(S(=O)(=O)c4ccccc4Cl)ccc3c2=O)cn1` [Example 163, 6-(2-chlorophenylsulfonyl)-2-((6-methoxypyridin-3-yl)methyl)phthalazin-1(2H)-one], the maximal effect (Emax) is 77.3% and the EC50 amounted to 135 nM.

For `COc1ccc(Cn2ncc3cc(S(=O)(=O)c4ccccc4OC)ccc3c2=O)cn1` [Example 164, 6-(2-methoxyphenylsulfonyl)-2-((6-methoxypyridin-3-yl)methyl)phthalazin-1(2H)-one], the Emax was 107% and the EC50 came out at 146 nM.

`COc1ccnc(S(=O)(=O)c2ccc3c(=O)n(Cc4ccc(OC)nc4)ncc3c2)c1` [Example 165, 6-(4-methoxypyridin-2-ylsulfonyl)-2-((6-methoxypyridin-3-yl)methyl)phthalazin-1(2H)-one]: the maximal effect (Emax) is 77.5% and the EC50 stood at 456 nM.

Turning to `COc1ccc(Cn2ncc3cc(S(=O)(=O)c4ccc5c(c4)CC(C)(C)O5)ccc3c2=O)cn1` [Example 166, 6-((2,2-dimethyl-2,3-dihydrobenzofuran-5-yl)sulfonyl)-2-((6-methoxypyridin-3-yl)methyl)phthalazin-1(2H)-one], the maximum response (Emax) is 99.4% and the 50% effective concentration (EC50) was 131 nM.

`COc1ccc(Cn2ncc3cc(S(=O)(=O)c4ccc5c(c4)CC(C)O5)ccc3c2=O)cn1` (stereo not drawn) [Example 167, 2-((6-methoxypyridin-3-yl)methyl)-6-((2-methyl-2,3-dihydrobenzofuran-5-yl)sulfonyl)phthalazin-1(2H)-one]: the maximal response (Emax) worked out at 95.5% and the 50% effective concentration (EC50) worked out at 65.8 nM.

With `COc1ccc(Cn2ncc3cc(S(=O)(=O)c4cnn(C)c4)ccc3c2=O)cn1` [Example 168, 2-((6-methoxypyridin-3-yl)methyl)-6-((1-methyl-1H-pyrazol-4-yl)sulfonyl)phthalazin-1(2H)-one], the maximum response (Emax) came to 96% and the EC50 worked out at 103 nM.

As to `COc1ccc(Cn2ncc3cc(S(=O)(=O)c4cccc(C)n4)ccc3c2=O)cn1` [Example 169, 2-((6-methoxypyridin-3-yl)methyl)-6-(6-methylpyridin-2-ylsulfonyl)phthalazin-1(2H)-one], the maximal response (Emax) amounted to 83% and the EC50 is 185 nM.

In the case of `COc1ccc(Cn2ncc3cc(S(=O)(=O)c4cccc(OC(F)F)c4)ccc3c2=O)cn1` [Example 170, 6-(3-(difluoromethoxy)phenylsulfonyl)-2-((6-methoxypyridin-3-yl)methyl)phthalazin-1(2H)-one], the Emax is 101% and the concentration for a half-maximal effect (EC50) was 82 nM.

With `COc1ccc(Cn2ncc3cc(S(=O)(=O)c4ccc(C)s4)ccc3c2=O)cn1` [Example 171, 2-((6-methoxypyridin-3-yl)methyl)-6-(5-methylthiophen-2-ylsulfonyl)phthalazin-1(2H)-one], the Emax was determined as 82.3% and the EC50 amounted to 77.2 nM.
